Laboratory results as given in PubChem BioAssay AID192 (DTP/NCI, 2004).
Several values for one entry are separate records, joined by “and”; a condition that tells them apart may be missing. Identical values can stand only once. Toxic doses and inconclusive results are not listed.

System: BDF1 mice, B16 melanoma ip, median survival T/C
Assay: NCI In Vivo Anticancer Drug Screen. Data for tumor model B16 Melanoma (intraperitoneal) in B6D2F1 (BDF1) mice
Settings: endpoint: median survival time, higher = longer survival
Method in brief: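 Antitumor activity is assessed in mice bearing a transplanted tumor, with survival or tumor size compared against vehicle-dosed controls and expressed as T/C.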

[1] = dose: 100.0 mg/kg/injection, schedule: Q01DX009 (ip), vehicle: Klucel (hydroxypropylcellulose) (HPC)
[2] = dose: 200.0 mg/kg/injection, schedule: Q01DX009 (ip), vehicle: Klucel (hydroxypropylcellulose) (HPC)
[3] = dose: 400.0 mg/kg/injection, schedule: Q01DX009 (ip), vehicle: Klucel (hydroxypropylcellulose) (HPC)
[4] = dose: 25.0 mg/kg/injection, schedule: Q01DX009 (ip), vehicle: Klucel (hydroxypropylcellulose) (HPC)
[5] = dose: 50.0 mg/kg/injection, schedule: Q01DX009 (ip), vehicle: Klucel (hydroxypropylcellulose) (HPC)
[6] = dose: 6.25 mg/kg/injection, schedule: Q01DX009 (ip), vehicle: saline with Tween-80
[7] = dose: 12.5 mg/kg/injection, schedule: Q01DX009 (ip), vehicle: saline with Tween-80
[8] = dose: 25.0 mg/kg/injection, schedule: Q01DX009 (ip), vehicle: saline with Tween-80
[9] = dose: 25.0 mg/kg/injection, schedule: Q04DX003 (ip), vehicle: saline with Tween-80
[10] = dose: 50.0 mg/kg/injection, schedule: Q01DX009 (ip), vehicle: saline with Tween-80
[11] = dose: 100.0 mg/kg/injection, schedule: Q01DX009 (ip), vehicle: saline with Tween-80
[12] = dose: 200.0 mg/kg/injection, schedule: Q01DX009 (ip), vehicle: saline with Tween-80
[13] = dose: 12.5 mg/kg/injection, schedule: Q01DX009 (ip), vehicle: Klucel (hydroxypropylcellulose) (HPC)
[14] = dose: 6.25 mg/kg/injection, schedule: Q01DX009 (ip), vehicle: other
[15] = dose: 12.5 mg/kg/injection, schedule: Q01DX009 (ip), vehicle: other
[16] = dose: 25.0 mg/kg/injection, schedule: Q01DX009 (ip), vehicle: other
[17] = dose: 12.5 mg/kg/injection, schedule: Q01DX009 (ip), vehicle: saline
[18] = dose: 25.0 mg/kg/injection, schedule: Q01DX009 (ip), vehicle: saline
[19] = dose: 50.0 mg/kg/injection, schedule: Q01DX009 (ip), vehicle: saline
[20] = dose: 100.0 mg/kg/injection, schedule: Q01DX009 (ip), vehicle: saline
[21] = dose: 200.0 mg/kg/injection, schedule: Q01DX009 (ip), vehicle: saline

In the case of `OC1(C#CC2(O)c3ccccc3-c3ccccc32)c2ccccc2-c2ccccc21`, the T/C [1] is reported as 122 % of control, the T/C [2] is reported as 97 % of control and the T/C [3] is reported as 94 % of control.

In the case of `C[NH-].C[NH-].C[NH-].C[NH-].[Cl][Rh][Cl]`, the T/C [4] is reported as 114 % of control, the T/C [5] is reported as 120 % of control and the T/C [1] is reported as 105 % of control.

In the case of `CC(C)(CN=Cc1ccccc1[O-])N=Cc1ccccc1[O-].[O]=[V]`, the T/C [6] is reported as 95 % of control, the T/C (dose: 6.25 mg/kg/injection, schedule: Q04DX003 (ip), vehicle: saline with Tween-80) is reported as 113 % of control and the T/C [7] is reported as 95 % of control. For the same molecule, the T/C (dose: 12.5 mg/kg/injection, schedule: Q04DX003 (ip), vehicle: saline with Tween-80) was 91 % of control, the T/C [8] was 92 % of control and the T/C [9] was 104 % of control.

For `CSc1ccc2c(c1)C(N1CCN(C)CC1)Cc1ccccc1S2` (configuration not stated), the T/C (dose: 1.56 mg/kg/injection, schedule: Q01DX009 (ip), vehicle: saline with Tween-80) was 109 % of control and the T/C (dose: 3.12 mg/kg/injection, schedule: Q01DX009 (ip), vehicle: saline with Tween-80) was 110 % of control.

`O=C(O)O.O=C(O)O.O=C(O)O.[Co]` was tested, and the T/C [9] was 88 % of control and the T/C (dose: 50.0 mg/kg/injection, schedule: Q04DX003 (ip), vehicle: saline with Tween-80) was 91 % of control.

For `C[n+]1cc2c3ccccc3c(N)cc2c2ccccc21`, the T/C (dose: 3.13 mg/kg/injection, schedule: Q01DX009 (ip), vehicle: saline) was 106 % of control.

`COc1ccc(CCN2C(=O)CSC2=S)cc1OC` was tested, and the T/C [4] was 100 % of control, the T/C [5] was 88 % of control and the T/C [10] was 94 % of control and 98 % of control. The T/C [1] was 89 % of control and 94 % of control, the T/C [11] was 104 % of control and the T/C (dose: 100.0 mg/kg/injection, schedule: Q04DX003 (ip), vehicle: saline with Tween-80) was 89 % of control. For the same molecule, the T/C [12] was 90 % of control and 94 % of control and the T/C (dose: 200.0 mg/kg/injection, schedule: Q04DX003 (ip), vehicle: saline with Tween-80) was 94 % of control.

For `O=C1C=C(C2OC(CO)C(O)C2O)C(=O)N1` (configuration not stated), the T/C (dose: 6.25 mg/kg/injection, schedule: Q01DX009 (ip), vehicle: Klucel (hydroxypropylcellulose) (HPC)) was 107 % of control and the T/C [13] was 99 % of control and 102 % of control.

In the case of `N#CSc1ccc(NN)cc1`, the T/C [14] is reported as 96 % of control, the T/C [15] is reported as 114 % of control and the T/C [16] is reported as 99 % of control.

For `Cc1ccc(S(=O)(=O)N/N=C/c2ccccc2Cl)cc1`, the T/C (dose: 1.56 mg/kg/injection, schedule: Q01DX009 (ip), vehicle: other) was 98 % of control, the T/C (dose: 3.13 mg/kg/injection, schedule: Q01DX009 (ip), vehicle: other) was 99 % of control and the T/C [14] was 96 % of control. For the same molecule, the T/C [13] was 91 % of control, the T/C [15] was 90 % of control and the T/C [5] was 89 % of control. The T/C [1] was 86 % of control.

For `COC(=O)C(c1ccccc1)C1CCCCN1` (configuration not stated), the T/C (dose: 3.12 mg/kg/injection, schedule: Q01DX009 (ip), vehicle: saline) was 97 % of control, the T/C (dose: 6.25 mg/kg/injection, schedule: Q01DX009 (ip), vehicle: saline) was 100 % of control and the T/C [17] was 88 % of control. For the same molecule, the T/C [18] was 88 % of control and the T/C [19] was 97 % of control.

For `CC1OC(O[C@H]2/C=C/C=C/C=C/C=C/C=C/C=C/C=C/[C@H](C)[C@@H](O)[C@@H](C)[C@H](C)OC(=O)C[C@H](O)C[C@H](O)CC[C@@H](O)[C@H](O)C[C@H](O)C[C@]3(O)C[C@H](O)[C@@H](C(=O)O)[C@H](C2)O3)C(O)C(N)C1O` (some centres not stated), the T/C (dose: 1.0 mg/kg/injection, schedule: Q01DX009 (ip), vehicle: saline) was 102 % of control and 124 % of control, the T/C (dose: 2.0 mg/kg/injection, schedule: Q01DX009 (ip), vehicle: saline) was 106 % of control and 113 % of control and the T/C (dose: 4.0 mg/kg/injection, schedule: Q01DX009 (ip), vehicle: saline) was 97 % of control and 116 % of control. For the same molecule, the T/C (dose: 8.0 mg/kg/injection, schedule: Q01DX009 (ip), vehicle: saline) was 92 % of control and 102 % of control and the T/C (dose: 16.0 mg/kg/injection, schedule: Q01DX009 (ip), vehicle: saline) was 88 % of control and 98 % of control.

In the case of `O=NN(CCBr)C(=O)Nc1ccccc1`, the T/C [7] is reported as 152 % of control, the T/C [8] is reported as 202 % of control and the T/C (dose: 37.5 mg/kg/injection, schedule: Q01DX009 (ip), vehicle: saline with Tween-80) is reported as 171 % of control. The T/C [10] was 177 % of control.

`O=c1[nH]c(=O)n(C2CC(O)C(CO)O2)cc1C(F)(F)F` (configuration not stated) was tested, and the T/C [17] was 104 % of control, the T/C (dose: 20.0 mg/kg/injection, schedule: Q01DX009 (ip), vehicle: saline) was 105 % of control and the T/C [18] was 102 % of control. For the same molecule, the T/C [19] was 112 % of control.

With `COc1ccc2c(=O)c(C)c(-c3ccccc3)oc2c1CN(C)C` the T/C (dose: 0.19 mg/kg/injection, schedule: Q01DX009 (ip), vehicle: saline) was 95 % of control, the T/C (dose: 0.39 mg/kg/injection, schedule: Q01DX009 (ip), vehicle: saline) was 103 % of control and the T/C (dose: 0.78 mg/kg/injection, schedule: Q01DX009 (ip), vehicle: saline) was 100 % of control. The T/C (dose: 1.56 mg/kg/injection, schedule: Q01DX009 (ip), vehicle: saline) was 96 % of control.

In the case of `COc1cc2c(cc1OC)/C(=C\C(=O)N1CCCC1=O)CCC2`, the T/C [1] is reported as 97 % of control, the T/C [2] is reported as 100 % of control and the T/C [3] is reported as 117 % of control.

`COc1cc2ccc(C(C)N)cc2cc1OC` (configuration not stated) was tested, and the T/C [20] was 97 % of control and the T/C [21] was 95 % of control.

`CCC1NC(=O)C(NC(=O)c2ncccc2O)C(C)OC(=O)C(c2ccccc2)NC(=O)C2CC(=O)CCN2C(=O)C(Cc2ccccc2)N(C)C(=O)C2CCCN2C1=O` (configuration not stated) (tested in a mixture with another compound) was tested, and the T/C (dose: 18.75 mg/kg/injection, schedule: Q01DX009 (ip), vehicle: Klucel (hydroxypropylcellulose) (HPC)) was 104 % of control, the T/C (dose: 37.5 mg/kg/injection, schedule: Q01DX009 (ip), vehicle: Klucel (hydroxypropylcellulose) (HPC)) was 108 % of control and the T/C (dose: 75.0 mg/kg/injection, schedule: Q01DX009 (ip), vehicle: Klucel (hydroxypropylcellulose) (HPC)) was 108 % of control.

`CS(=O)(=O)OCC(=O)NCC(O)CNC(=O)COS(C)(=O)=O` was tested, and the T/C [10] was 109 % of control, the T/C [11] was 104 % of control and the T/C [12] was 115 % of control.

With `COc1cc2c(c(OC)c1OC)-c1ccc(OC)c(=O)cc1[C@@H](NC(=O)CF)CC2` the T/C (dose: 0.04 mg/kg/injection, schedule: Q01DX009 (ip), vehicle: saline with Tween-80) was 116 % of control and the T/C (dose: 0.09 mg/kg/injection, schedule: Q01DX009 (ip), vehicle: saline with Tween-80) was 118 % of control.

With `NC(=O)c1cc([N+](=O)[O-])c(Cl)c([N+](=O)[O-])c1Cl` the T/C (dose: 4.0 mg/kg/injection, schedule: Q01DX009 (ip), vehicle: Klucel (hydroxypropylcellulose) (HPC)) was 93 % of control and the T/C (dose: 8.0 mg/kg/injection, schedule: Q01DX009 (ip), vehicle: Klucel (hydroxypropylcellulose) (HPC)) was 92 % of control.

With `CCOC(=O)C(Cc1ccc(O)cc1)Nc1nc2ccccc2o1` (configuration not stated) the T/C [10] was 103 % of control, the T/C [11] was 106 % of control and the T/C [12] was 106 % of control. For the same molecule, the T/C (dose: 400.0 mg/kg/injection, schedule: Q01DX009 (ip), vehicle: saline with Tween-80) was 96 % of control.

`CCCCCCOP(=O)(CCCCCC)OCCCCCC` was tested, and the T/C [13] was 91 % of control, the T/C [5] was 94 % of control and the T/C [1] was 97 % of control.

With `CC(=O)N(C)c1ccc(/C=C2\C=Cc3ccccc32)cc1` the T/C [6] was 96 % of control, the T/C [7] was 100 % of control and the T/C [8] was 102 % of control.

In the case of `CN[C@@H]1[C@H](O)[C@H](NC)[C@H]2O[C@@]3(O)C(=O)C[C@@H](C)O[C@H]3O[C@@H]2[C@H]1O`, the T/C [20] is reported as 108 % of control, the T/C [21] is reported as 103 % of control and the T/C (dose: 400.0 mg/kg/injection, schedule: Q01DX009 (ip), vehicle: saline) is reported as 113 % of control.

With `Cn1cnc([N+](=O)[O-])c1Sc1nc(N)nc2c1ncn2C1OC(CO)C(O)C1O` (configuration not stated) the T/C (dose: 12.5 mg/kg/injection, schedule: Q01DX009 (ip), vehicle: suspension in saline) was 91 % of control.

`CCOC(=O)N(NC(=O)c1ccccc1)C(C)=O` was tested, and the T/C [14] was 101 % of control, the T/C [15] was 99 % of control and the T/C [16] was 95 % of control. For the same molecule, the T/C (dose: 50.0 mg/kg/injection, schedule: Q01DX009 (ip), vehicle: other) was 95 % of control.
